From patent publication US8552013B2, “Heterocyclic compounds based on N6-substituted adenine, methods of their preparation, their use for preparation of drugs, cosmetic preparations and growth regulators, pharmaceutical preparations, cosmetic preparations and growth regulators containing these compounds” (USTAV Experimentalni Botaniky Akademie Ved Ceske Republiky, priority 2001, dated 2013)
Entries after “also recorded” stand apart in the source; their conditions may differ.

How the values were obtained:
HOS = assay: Calcein AM cytotoxicity, HOS; assay type: cell-based; settings: Homo sapiens, HOS, 72 h
[1] = test system: Rosa hybrida (pot rose cultivar) explants; assay: In vitro and post vitro shoot multiplication and rooting of rose; assay type: in vivo
Description: The aim of this experiment was to test whether the new compounds are of practical use in tissue culture practice. The multiplication rate was investigated and the post vitro effects on rooting were examined. Rosa hybrida (pot rose cultivar) was cultured in 350 ml vessels with a screw on polycarbonate lid. Each culture vessel contained 100 ml autoclaved medium (120° C., 20 min). The cultures were maintained at 23±2° C. under a 16 h photoperiod at 40 μM m^−2 s^−1 PAR. The basal medium (BMR) contained Murashige and Skoog (1962) macroelements, microelements and vitamins, 95 μM NaFeEDTA, 555 μM myo-inositol, 111 mM sucrose, 1.332 mM glycine, 684 μM L-glutamine and 7 g/l agar. This medium was supplemented with 10 μM BA, mT, oMeOBAP or mMeOBAP (compound no. 14 and 15, respectively). The control medium didn't contain any cytokinin. After a culture period of 8 weeks, the number of induced shoots per explant was determined, as well as root number/explant and total root length/explant. The roots were removed and the explants (shoot clusters) were planted in unfertilised peat. After four weeks of acclimatising in a fog unit, root number and root length was determined.

[2] = test system: Rosa hybrida 'Pailin' explants; assay: Early shoot senescence of tissue cultured roses; assay type: in vivo; settings: 10 μM in medium
Description: Rosa hybrida ‘Pailin’ (a cut rose) was cultured in 350 ml vessels with a screw on polycarbonate lid. Each culture vessel contained 100 ml autoclaved medium (120° C., 20 min). The cultures were maintained at 23±2° C. under a 16 h photoperiod at 40 μM m^−2 s^−1 PAR. The basal medium (BMR) contained Murashige and Skoog (1962) macroelements, microelements and vitamins, 36.7 mg/l NaFeEDTA, 50 mg/l NaFeEDDHA, 100 mg/l […] myo-inositol, 30 g/l sucrose, 100 mg/l glycine, 50 mg/l calcium pantothenate, 100 mg/l L-glutamine and 7 g/l agar-agar. This medium was supplemented with 10 μM BA, mT and mMeOBAP. The last 2 cytokinins were filter sterilised and added after autoclaving the medium in the vessels. The control medium didn't contain any cytokinin. After a culture period of 6 weeks, scoring senescence symptoms was started.

human skin fibroblasts [3] = assay: Cell attachment of human skin fibroblasts; assay type: cell-based
Description: All experiments were performed on early and mid passage cultures (about 20 to 40% lifespan completed) of normal human adult skin fibroblast line; designated ASF-2 & Senetek cell line (about 10-90% lifespan completed); designated as SF20. In order to check the effects of test compounds on senescent cells, late passage cells with more than 95% lifespan completed were used. ASF-2 and SF20 cell lines were established from a mammary skin biopsy obtained from a young, non-smoking and healthy […] at the time of breast reduction operation. Normal culture conditions of medium (DMEM) containing antibiotics, 10% foetal calf serum, and incubation at 37° C. with 95% humidity were used. The effects of the test chemicals were determined in the following conditions: […]

[4] = test system: human adult skin fibroblasts; assay: Short-term growth of human skin fibroblasts (cell counts, Giemsa); assay type: cell-based
Description: (§1) All experiments were performed on early and mid passage cultures (about 20 to 40% lifespan completed) of normal human adult skin fibroblast line; designated ASF-2 & Senetek cell line (about 10-90% lifespan completed); designated as SF20. In order to check the effects of test compounds on senescent cells, late passage cells with more than 95% lifespan completed were used. ASF-2 and SF20 cell lines were established from a mammary skin biopsy obtained from a young, non-smoking and healthy […] at the time of breast reduction operation. Normal culture conditions of medium (DMEM) containing antibiotics, 10% foetal calf serum, and incubation at 37° C. with 95% humidity were used. The effects of the test chemicals were determined in the following conditions:
Short-term growth experiments were performed using 24-well tissue culture plates (growth area 1.9 cm^2). Freshly prepared cell suspensions from mass cultures of ASF-2 cells maintained in our labs were used. About 10,000 cells were seeded into 6 sets of 24-well plates. The cells were allowed to attach and stabilize for 24 hr in normal culture medium to achieve various final concentrations (range 40 to 500 μM). Culture medium was changed with the addition of test chemicals twice a week. The numbers of cells were counted after different days of treatment in 2 wells from each concentration of the test chemical, by following the normal method of cell trypsinization and counting using a Coultercounter. The third well in each category was fixed by cold methanol and stained with Giemsa stain for permanent record and for photography. The experiment was carried on for until the cultures became fully confluent and no further growth was possible.

human skin fibroblasts [5] = assay: Cell survival, MTT assay; assay type: cell-based; settings: 3 days
Description: Cell survival after exposure to various doses was measured with the 3-(4,5 dimethylthiazol-2-yl)-2,5-diphenyltetrazolium bromide (MTT) assay. About 5,000 cells were seeded per well in a 96-well plate 24 h before the experiment. Cells were then treated with various doses of the compound to be tested. The wells were washed in Hank's and new medium was added. After three days, MTT (Sigma, M2128) was added at 0.5 mg/ml in medium. After 4 h, MTT was removed and isopropanol and HCl were added to dissolve the MTT crystals for 12-16 h. The absorbance at 595 nm was measured.

[6] = test system: lysosomes of fibroblast cells; assay: Lysosomal activity, neutral red uptake; assay type: cell-based, human
Description: Neutral Red is preferentially taken up into the lysosomes of the cell. Fibroblast cells are maintained in culture and exposed to test compounds over a range of concentrations. The cultures are visually examined after 72 hours, and the number of viable cells and/or the total cell protein content determined, after 72 hours exposure, by the Neutral Red Uptake method. Advantage of Neutral Red assay is that it detects only viable cells. Any chemical having a localized effect upon the lysosomes will, therefore, result in an artificially low (or possibly high) reflection of cell viability and cell number. This factor does, however, make the system useful to detect those compounds which selectively affect the lysosomes, especially when it is used in conjunction with other tests capable of determining cell number.
The NR assay has been applied to evaluation and ranking the cytotoxicity of a spectrum of compounds. Individual wells of a 96-well tissue culture microtiter plate were inoculated with 0.2 ml of the appropriate media containing cells (usually 3×10^3 cells). After 1 to 2 days of incubation, the media were removed and replaced with unamended (control) medium or with medium amended with varied concentrations of the compound to be tested. After 3 days of exposure to the compound, media were removed and replaced with media containing 0.001% NR. The assay plate was then returned to the incubator for another 3 h to allow for uptake of the supravital dye into the lysosomes of viable cells. Thereafter, the media were removed and the cells were rapidly washed with 0.5% formaldehyde-1% CaCl2 followed by 0.2 ml of a solution of 1% acetic acid-50% ethanol to extract the dye from the cells. After 10 min at room temperature and a brief but rapid agitation on a microtiter plate shaker, the plates were transferred to a microplate spectrophotometer equipped with a 540-nm filter to measure the absorbance of the extracted dye.
The toxicities of the various compounds were compared with those of the control cultures by computing the data obtained.

proteasome = assay: Proteasomal chymotrypsin-like activity in cell extracts of treated cells; assay type: cell-based, human; settings: 40, 80 and 200 μM
Description: Chymotrypsin-like activity in cell extracts prepared from treated and untreated cells was determined by in vitro degradation of oligopeptides by the proteasome.

[7] = test system: senescent human skin fibroblasts; assay: Actin staining of senescent cells (FITC-Phalloidin); assay type: cell-based; settings: after 3 days; meta 40 μM
Source text: Actin staining: The pattern of cytoskeletal actin staining was studied by staining the cells with florescent ligand FITC-labelled Phalloidin, using a fluorescence microscope

[8] = test system: senescent human skin fibroblasts; assay: Morphology of senescent cells; assay type: cell-based
Description: as §1
Senescent human skin fibroblasts were treated with various doses of para-topolin to see if this treatment could reverse age-related alterations in their morphology. […] The cells progressively became heterogeneous with large and flattened appearance.

[9] = test system: senescent human skin fibroblasts; assay: Numbers of surviving senescent cells (Coulter counter); assay type: cell-based
Description: Equal numbers of senescent cells were seeded in separate flasks and were treated with different concentrations of para-topolin. Cell numbers were determined by using a Coulter counter after trpsinization and resuspension of cells after 7 and 14 days of treatment.
Equal numbers of senescent cells were seeded in separate flasks and were treated with different concentrations of ortho-topolin. Cell numbers were determined by using a Coulter counter after trypsinisation and resuspension of cells, after 7 and 14 days of treatment.

human skin fibroblasts [10] = assay: beta-galactosidase staining of treated skin fibroblasts; assay type: cell-based; settings: short-term growth treatment
human skin fibroblasts [11] = assay: Series of experiments on short-term effects on human skin fibroblasts, conclusion; assay type: cell-based; settings: para at a dose of 40 μM
Description: as §1
The experiments were performed to determine the effects of short-term treatment of ortho-topolin, meta-topolin, and para-topolin on cell attachment, survival, growth, apoptosis, actin cytoskeletal pattern, lysosomal activity, proteasomal activity and morphology of human skin fibroblasts in culture.

[12] = Ex vitro, four weeks of acclimatising

c1ccc(CNc2ncnc3nc[nH]c23)cc1 [BAP, 6-benzylaminopurine, reference compound]
IC50 (HOS): > 167 µM
shoot multiplication and rooting, in words ([1]; 10 μM): high shoot multiplication rate, but the shoots rooted badly
Root number per plant [1, 12]: 0.6
Total root length per plant [1, 12]: 1.1 cm
Flower number per explant ([1]; In vitro, 10 μM, 8 weeks): 0.00
Number of new shoots per explant ([1]; In vitro, 10 μM, 8 weeks): 3.8
Root number per explant ([1]; In vitro, 10 μM, 8 weeks): 0.0
Total root length per explant ([1]; In vitro, 10 μM, 8 weeks): 0.0 cm
relative number of dead plants in relation to culture time [2]: looks like a sigmoid curve

Oc1ccc(CNc2ncnc3nc[nH]c23)cc1 [para-topolin, 6-(4-hydroxybenzylamino)purine]
Percent of cells attached, effect in words (human skin fibroblasts [3]; 6 hours, para 40 μM to 1 mM, ortho 40 to 400 μM, meta 40 to 200 μM): not affected to any significant extent
Overall cell attachment improved (summary) (human skin fibroblasts [3]; para at 40, 80, 100, 160, 250 and 500 μM): 10-40%
Cell growth (summary) ([4]; 40 μM): not affected
Cell growth lower ([4]; 40 μM): 10%
reduction of cell growth ([4]; 80 μM): over 40%
appearance of dermal cells, microscopic examination (summary) ([4]; 40 and 80 μM): Healthy appearances of the cells were maintained
Cell growth (summary) ([4]; 80, 200 and 500 μM): reduced
appearance of dermal cells, microscopic examination (summary) ([4]; 200 and 500 μM): toxic effects with enlargement in cell sizes
appearance of cells ([4]; 200 and 500 μM, eleven days): large in appearance, irregularly arranged and few in numbers
dose over which cytotoxicity of cells was seen ([4]; Giemsa pictures after eleven days): > 80 µM
Cellular growth at higher concentrations ([4]; para 200 to 500 μM after 11 days, ortho 200 and 400 μM after 7 days, meta 400 μM): almost a total inhibition
reduction in cell survival (human skin fibroblasts [5]; 200-500 μM): 15-25%
dose until which not cytotoxic / no toxic effect on survival (MTT) (human skin fibroblasts [5]; range 0.01-500 μM): 100 µM
neutral red staining pattern of cells ([6]; 40 μM-500 μM): autophagy
reduction in the macro-molecular turn over rate ([6]; 80 & 200 μM): 10-15%
proteasomal activity (chymotrypsin-like), removal of oxidized and abnormal proteins (proteasome): slight improvement; also recorded: observed in a dose dependent manner
actin staining pattern in senescent cells [7]: no obvious differences
appearance of senescent cells on longer treatment ([8]; 14 days, ortho and meta 80 μM and above): began to shrink and die
appearance of senescent cells ([8]; after 7 days of treatment (para: 7 days and 14 days; meta: low concentrations)): subtle differences
growth of senescent cells ([9]; 200 μM, 7 to 14 days): no further growth of the cells was observed
numbers of surviving senescent cells ([9]; 7 to 14 days of treatment): tolerant to para-topolin until 80 μM
number of prematurely senescent cells, beta-galactosidase staining (human skin fibroblasts [10]): did not show any increase
conclusion on short-term effects on human skin fibroblasts (human skin fibroblasts [11]): beneficial anti-aging effects
